US4333952A, “Growth promotors for ruminants” (Beecham Group Limited, priority 1979, dated 1982)
Where two headings read alike, the source gives them in different places.

Legend:
[1] = tested on: rumen fluid; assay: in vitro incubation of buffered rumen fluid (methane inhibition, propionate enhancement, headspace gases and volatile fatty acids); type: cell-based, sheep; conditions: for inhibition at 2 ppm / inhibition at 3 ppm / activation at 2 ppm / activation at 3 ppm / inhibition at 10 ppm / activation at 10 ppm / inhibition at 5 ppm / activation at 5 ppm: Ovis aries
Protocol: The compounds were tested for their ability to reduce or inhibit methane production and to enhance propionate formation. The method used is as follows:
The screening system is in vitro incubation of buffered rumen fluid with, or without, the addition of the test compound.
Rumen fluid is removed by suction from two rumenfistulated sheep, just before feeding. The fluid is strained and mixed. The incubation is for twenty hours in a shaking water-bath at 39° C. Each incubation flask contains: 30 ml McDougall's bicarbonate buffer, pH 6.7-6.9, 10 ml strained rumen fluid, 200 mg substrate (the substrate is a ground sample of the diet on which the sheep has been fed) and 1 ml 10% aqueous ethanol containing 0.2% Tween 80 and the compound under examination. Samples are taken at the end of the incubation period for analysis of headspace gases and volatile fatty acids, by g.l.c.
The compounds were tested at 10 ppm/flask, except for the compounds of Examples 9 and 10 which were tested at 5 ppm/flask.
Selected compounds were also tested according to the above protocol at doses of 2 and 3 ppm, the results being given in Table 2 below.
The compound of Example 1 was further tested in an in vitro a dose response study, according to the protocol above, at the doses shown in Table 3 below.

[2] = tested on: methanogenesis; assay: in vivo gas collection screen in sheep (respirometer, methanogenesis and hydrogen evolution); conditions: 50 mg/sheep/day, 5 week period, same study
Protocol: In vivo studies in a "gas collection screen":
Groups of 4, 50 kg sheep were fed diets containing one of the compounds of formula (I) over a 5 week period. A different sheep from each group was put into a respirometer for 24 hours each day. Each sheep was thus monitored once in every […], gas flow was maintained by a peristaltic pump and measured using a commercial gas meter and a sub-sample collected in a butyl-rubber inner tube.

[3] = 20 h, read-out: VFA production % change from control, Acetate
[4] = 20 h, read-out: VFA production % change from control, Butyrate
[5] = 20 h, read-out: VFA production % change from control, Propionate
[6] = 20 h, read-out: VFA production % change from control, TVFA
[7] = 20 h, read-out: VFA production % difference from control, Acetate
[8] = 20 h, read-out: VFA production % difference from control, Butyrate
[9] = 20 h, read-out: VFA production % difference from control, Propionate
[10] = 20 h, read-out: VFA production % difference from control, TVFA
[11] = 10 ppm/flask, 20 h, 39° C., read-out: % inhibition of methane
[12] = 5 ppm/flask (Examples 9 and 10), 20 h, 39° C.

COc1cccc(NCC(O)C(Cl)(Cl)Cl)c1 (centres unmarked) [Example 6, 1,1,1-Trichloro-3-(m-methoxy)anilinopropan-2-ol]
% hydrogen present ([1]; 10 ppm/flask, 20 h, 39° C.): 2.59%
Molar % VFA Acetate ([1]; 10 ppm/flask, 20 h, 39° C.): 63.2 Molar %
Molar % VFA Butyrate ([1]; 10 ppm/flask, 20 h, 39° C.): 8.50 Molar %
Molar % VFA Propionate ([1]; 10 ppm/flask, 20 h, 39° C.): 24.9 Molar %
TVFA ([1]; 10 ppm/flask, 20 h, 39° C.): 55.4 μM/ml
inhibition at 2 ppm [1, 3]: 9.3%
inhibition at 3 ppm [1, 3]: 41.8%
activation at 2 ppm [1, 4]: 15.3%
activation at 3 ppm [1, 4]: 15.2%
activation at 2 ppm [1, 5]: 12.6%
activation at 3 ppm [1, 5]: 41.7%
inhibition at 2 ppm [1, 6]: 4.5%
inhibition at 3 ppm [1, 6]: 21.5%
inhibition at 10 ppm [1, 7]: 40.4%
activation at 10 ppm [1, 8]: -6.6%
activation at 10 ppm [1, 9]: 36.8%
inhibition at 10 ppm [1, 10]: 25.3%
inhibition at 10 ppm [1, 11]: 97.5%
inhibition at 2 ppm ([1]; Table 2, 2 ppm, read-out: % inhibition of methane): 11.5%
inhibition at 3 ppm ([1]; Table 2, 3 ppm, read-out: % inhibition of methane): 77.8%
% hydrogen in headspace gases ([1]; Table 2, 2 ppm): 0.03%
% hydrogen in headspace gases ([1]; Table 2, 3 ppm): 1.09%

OC(CN(CC(O)C(Cl)(Cl)Cl)c1ccccc1)C(Cl)(Cl)Cl (centres unmarked) [Example 7, N,N-Di (3,3,3-Trichloro-2-hydroxypropyl)aniline]
% hydrogen present ([1]; 10 ppm/flask, 20 h, 39° C.): 2.17%
Molar % VFA Acetate ([1]; 10 ppm/flask, 20 h, 39° C.): 61.9 Molar %
Molar % VFA Butyrate ([1]; 10 ppm/flask, 20 h, 39° C.): 9.72 Molar %
Molar % VFA Propionate ([1]; 10 ppm/flask, 20 h, 39° C.): 24.8 Molar %
TVFA ([1]; 10 ppm/flask, 20 h, 39° C.): 56.2 μM/ml
inhibition at 10 ppm [1, 11]: 87.9%
inhibition at 10 ppm ([1]; 10 ppm/flask, 20 h, 39° C., read-out: VFA production % difference from control, Acetate): 40.8%
activation at 10 ppm ([1]; 10 ppm/flask, 20 h, 39° C., read-out: VFA production % difference from control, Butyrate): 18.9%
activation at 10 ppm ([1]; 10 ppm/flask, 20 h, 39° C., read-out: VFA production % difference from control, Propionate): 39%
inhibition at 10 ppm ([1]; 10 ppm/flask, 20 h, 39° C., read-out: VFA production % difference from control, TVFA): 24.7%

O=C(CC(O)C(Cl)(Cl)Cl)c1ccc(Cl)cc1 (centres unmarked) [Example 8, 1-p-Chlorophenacyl-2-hydroxy-3-trichloropropane]
% hydrogen present ([1]; 10 ppm/flask, 20 h, 39° C.): 0.05%
Molar % VFA Acetate ([1]; 10 ppm/flask, 20 h, 39° C.): 63.5 Molar %
Molar % VFA Butyrate ([1]; 10 ppm/flask, 20 h, 39° C.): 9.8 Molar %
Molar % VFA Propionate ([1]; 10 ppm/flask, 20 h, 39° C.): 23.7 Molar %
TVFA ([1]; 10 ppm/flask, 20 h, 39° C.): 50.5 μM/ml
inhibition at 10 ppm [1, 7]: 23.1%
activation at 10 ppm [1, 8]: 50.7%
activation at 10 ppm [1, 9]: 42.4%
inhibition at 10 ppm [1, 10]: 6.5%
inhibition at 10 ppm [1, 11]: 34.1%

OC(CC(O)C(Cl)(Cl)Cl)c1ccc(Cl)cc1 (centres unmarked) [Example 9, 1-p-Chlorophenyl-1,3-dihydroxy-4,4,4-trichlorobutane]
% hydrogen present [1, 12]: 0.64%
Molar % VFA Acetate [1, 12]: 59.9 Molar %
Molar % VFA Butyrate [1, 12]: 10.7 Molar %
Molar % VFA Propionate [1, 12]: 26.4 Molar %
TVFA [1, 12]: 47.7 μM/ml
inhibition at 5 ppm [1, 7]: 38.5%
activation at 5 ppm [1, 8]: 59.7%
activation at 5 ppm [1, 9]: 53.2%
inhibition at 5 ppm [1, 10]: 15.5%
inhibition at 5 ppm ([1]; 5 ppm/flask (Examples 9 and 10), 20 h, 39° C., read-out: % inhibition of methane): 50.7%

CC[C@@]1([C@@H]2O[C@@H]([C@H]3O[C@@](O)(CO)[C@H](C)C[C@@H]3C)C[C@@H]2C)CC[C@H]([C@]2(C)CC[C@]3(C[C@H](O)[C@@H](C)[C@@H]([C@@H](C)[C@@H](OC)[C@H](C)C(=O)O)O3)O2)O1 [Monensin, reference compound]
methane inhibition [2]: 41%
